How the values were obtained:
[1] = molecular target: T1, mouse abdominal macrophage microsome ACAT (Mus musculus, UniProt Q61263); experiment: ACAT inhibitory activity (mouse abdominal macrophage microsome ACAT); assay type: biochemical; details: microsome ACAT from thioglycolate-stimulated C57BL6J mouse abdominal macrophage; 3H-oleyl-CoA, 37° C. for 20 minutes; read-out: Enzyme inhibition (IC50)
T1 construct: from tissue; host or cells: microsomes of thioglycolate-elicited peritoneal (abdominal) macrophages of C57BL6J mice, cultured 24 h with rabbit beta-VLDL
T1 sequence (Q61263 1-540): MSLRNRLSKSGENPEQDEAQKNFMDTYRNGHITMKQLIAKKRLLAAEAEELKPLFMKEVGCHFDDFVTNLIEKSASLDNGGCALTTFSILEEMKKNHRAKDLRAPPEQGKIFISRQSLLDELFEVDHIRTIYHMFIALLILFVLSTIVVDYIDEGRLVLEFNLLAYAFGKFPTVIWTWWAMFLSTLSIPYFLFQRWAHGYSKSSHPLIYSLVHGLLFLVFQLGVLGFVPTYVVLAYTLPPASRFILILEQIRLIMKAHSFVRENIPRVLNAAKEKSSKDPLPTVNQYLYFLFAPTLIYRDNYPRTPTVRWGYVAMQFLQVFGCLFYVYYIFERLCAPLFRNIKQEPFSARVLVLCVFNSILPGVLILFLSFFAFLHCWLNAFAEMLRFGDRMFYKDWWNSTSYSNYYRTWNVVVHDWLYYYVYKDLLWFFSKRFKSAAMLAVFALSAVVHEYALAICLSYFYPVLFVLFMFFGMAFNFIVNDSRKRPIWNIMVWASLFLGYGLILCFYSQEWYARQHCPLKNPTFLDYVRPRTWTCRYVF
Description: [Preparation of Mouse Abdominal Macrophage Microsome ACAT]
According to the method of Hakamada et al. (Experimental Medicine Suppliment vol. 14, No. 12, Circulation Research Protocol, p, 49-52, 1996), an abdominal macrophage was taken from a thioglycolate-stimulated C57BL6J mouse and cultured for 24 hours in a RPMI 1640-25 mM HEPES (pH7.0) medium containing rabbit β-very low density lipoprotein (β-VLDL, 150 μg cholesterol/ml) which had been prepared by the method of Ishii et al. (Ishii I et al., Arterioscler, Thromb, 12, 1139-1145, 1992). The abdominal macrophage was then collected by centrifugation (4° C., 1.000 rpm, 5 minutes) and sonicated. The sonicated liquid was centrifuged (4° C., 5000 rpm, 15 minutes) and then ultracentrifuged (4° C., 50, 000 rpm, 90 minutes) to prepare a microsome. The microsome thus obtained was used for measuring ACAT inhibitory activity of a test compound as mouse abdominal macrophage microsome ACAT.
[Method for Measuring ACAT Inhibitory Activity]
A mixture of a test compound, cholesterol-albumin-containing-Tris-HCL buffer (pH 7.5) and mouse abdominal macrophage microsome ACAT was pre-incubated at 37° C. for 10 minutes, and ^3H-oleyl-CoA was added to react at 37° C. for 20 minutes. A stopping solution composed of chloroform-methyl alcohol-distilled water (2:2:1 v/v) was added, and produced cholesteryl ester (CE) was extracted with shaking. The extract was subjected to silica gel thin chromatography (petroleum ether:diethyl ether:acetic acid=9:1:0.1 v/v), and the resulting ^3H-CE fraction was measured with a scintillation counter.
ACAT inhibiting rate was calculated from the proportion based on ACAT activity without a test compound, and an IC50 value was calculated as the concentration (μM) of a test compound showing ACAT inhibiting rate 50%. The results are shown in [Table 15].

IC50 [1]: 420 nM
melting point: 207 to 209 °C
Compound: O=C(O)CCc1cccc(-c2c(CC(=O)Nc3ccc(Cl)cc3C(F)(F)F)c(=O)oc3cc(Cl)c(CN4CCN(c5ccccc5)CC4)cc23)c1 [Example 115]
